This data set in a line: PK and tissue distribution of GC-Mel/Mel at various intervals after CAB 1.11i in TLS174T xenograft mice. The data set is classed as in vivo, Ncr athymic nude mice. As to the method: We assessed the tumor retention characteristics of CAB1.11i by monitoring the formation of Mel from the administration of GC-Mel. Dosing solutions were prepared on the day of dosing, within 60 minutes of administration.
The concentration of the formulation of GC-Mel in bicarbonate/sucrose was based on average […] weight, the desired volume of administration and a dose level of 150 mg/kg. GC-Mel was weighed out and, based on this weight, the appropriate amount of sodium bicarbonate to neutralize all 3 equivalents of the three carboxylic acid sites of GC-Mel was determined. Vehicle was prepared in the required volume by adding the precalculated sodium bicarbonate solution in 5% aqueous sucrose. Vehicle was prechilled at 4° C. Cold vehicle was added to the GC-Mel powder and the mixture was vortexed and sonicated to achieve speedy dissolution.
The animals were be implanted subcutaneously on the flank with 2×10^6 TLS174T cells, a human colorectal tumor line, in 100 μl of phosphate buffered saline. Beginning approximately one week after tumor cell implant, tumors were measured every 3 to 4 days. When the tumors reached approximately 100-250 mm^3, 156 animals were selected based on tumor size and randomized into 7 groups, resulting in a non-significant difference in the mean tumor size between groups at the start of the experiment.
Mice were warmed with a heating lamp and heating pad, placed in a restrainer and the test compounds were administered by bolus intravenous injection via the tail vein. For the blood sampling, all mice were anesthetized by isoflurane inhalation at the time of sample collection. Blood was collected by cardiac puncture into tubes containing EDTA and placed on ice. Tubes were centrifuged at 4000 RPM for two minutes. The plasma fraction was removed into a pre-labeled microfuge tube and placed on dry ice or liquid nitrogen. Sample concentrations were determined.
Tissue samples were rinsed 1× in phosphate buffered saline to remove blood. The samples were snap frozen using liquid nitrogen or dry ice. Tissue samples were stored at −70° C. prior to analysis. […]

Data on 1 molecule can be found in patent US8728470B2, “CAB molecules” (Danisco US Inc., priority 2004, dated 2014).

Structures are written as SMILES.

Take `N[C@@H](Cc1ccc(N(CCCl)CCCl)cc1)C(=O)O` [Mel, Melphalan]: the “plasma Mel level” value (GC-Mel 150 mg/kg given 96 hrs after CAB 1.11i 1 mg/kg) is “decreased to near background (concomitant) levels”. For the setting “with increased interval between CAB 1.11i and GC-Mel doses, FIG. 17”, the “plasma and kidney exposure to Mel (AUC)” value was “decreased”. For the same molecule, where the note is “with increasing interval, FIG. 18”, the “systemic melphalan exposure (AUC)” value was “decreased”.
